Molecules are shown by their SMILES.

Experimental findings from patent US6251882A, “Alkyl ketones as potent anti-cancer agents” (Parker Hughes Institute, priority 1999, dated 2001) are described below.

Test [1] concerns PC-3 (prostate cancer). In words: MTT cytotoxicity assay, PC-3. As to conditions: 24-36 hours at 37° C., 0.1 to 250 μM. In kind it is cell-based. The essentials: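 PC-3 cells seeded at 2.5×10^4/well, grown 36 h, then exposed to compound at 0.1–250 μM for 24–36 h at 37 °C, in triplicate. MTT (0.5 mg/ml final) added for 4 h, formazan read at 540 nm, converted to cell number via standard curves; IC50 by non-linear regression of percent survival.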
Background: Tetrazolium assays rely on reduction of a dye to a coloured formazan, in cell work by metabolically active cells.

In test [2] the test system is U373 glioblastoma cells. In words: Adhesion assay to ECM proteins, U373. It is filed as cell-based, human. As to conditions: laminin, fibronectin or type IV collagen; 16 hours (FIG. 7). The protocol: A human brain tumor cell line derived from an adult patient with glioblastoma, U-373 MG (Cat. #HTB-17) and MDA-MB-231 breast cancer cells (Cat. #HTB-26) were obtained from American Type Culture Collection (ATCC, Manassas, Va.) and maintained in liquid culture using DMEM supplemented with 10% fetal bovine serum and antibiotics. Fibroblast conditioned medium was used as a source of chemoattractant in vitro invasion assays. Conditioned medium was prepared as described previously (Albini, et al., 1987, Cancer Res., 47:3239-3245). […]
In adhesion assays, cells were centrifuged, washed twice with serum-free DMEM, counted and resuspended in serum-free DMEM to a final concentration of 2.5×10^5 cells/ml. […] The adherent fraction was quantitated using MTT (3-[4,5-dimethylthiazol-2-yl]-2,5-diphenyltetrazolium bromide) assays. […] The absorbance of each well was measured in a microplate reader (Labsystems) at […] and a reference wavelength of 690 nm. […] The adherent fraction of cells treated with HI-131 was compared to the DMSO-treated control cells and the percent adhesion relative to the control was determined.
Each treatment condition was evaluated in duplicate in 3 independent experiments. The IC50 values were calculated by non-linear regression analysis.

`CCCCCCCCCCCCSC[C@H](NC(C)=O)C(=O)CCl` [HI-131, N-Ac-S-dodecyl-Cys chloromethyl ketone]: the IC50 (in general, the midpoint of a concentration-inhibition curve) in test [1] came out at 22.1 µM. In addition, the “loss of adhesion, U373” value in test [2] was “dose-dependent loss of adhesion”.
